What was measured:
D(1A) dopamine receptor = D(1A) dopamine receptor (Homo sapiens, UniProt P21728); assay: Inhibition of dopamine D1 receptor (unknown origin)
[1] = Half life in human liver microsomes at 2 uM; assay type: ADME
[2] = Cmax in cynomolgous monkey at 5 mg/kg, po and 2 mg/kg, iv; assay type: ADME, organism-based, Macaca fascicularis; settings: cynomolgus monkey, in vivo
[3] = molecular target: T1, Amine oxidase [flavin-containing] A (Homo sapiens, UniProt P21397); assay: Inhibition of MAO-A (unknown origin)
T1 sequence (P21397 whole entry): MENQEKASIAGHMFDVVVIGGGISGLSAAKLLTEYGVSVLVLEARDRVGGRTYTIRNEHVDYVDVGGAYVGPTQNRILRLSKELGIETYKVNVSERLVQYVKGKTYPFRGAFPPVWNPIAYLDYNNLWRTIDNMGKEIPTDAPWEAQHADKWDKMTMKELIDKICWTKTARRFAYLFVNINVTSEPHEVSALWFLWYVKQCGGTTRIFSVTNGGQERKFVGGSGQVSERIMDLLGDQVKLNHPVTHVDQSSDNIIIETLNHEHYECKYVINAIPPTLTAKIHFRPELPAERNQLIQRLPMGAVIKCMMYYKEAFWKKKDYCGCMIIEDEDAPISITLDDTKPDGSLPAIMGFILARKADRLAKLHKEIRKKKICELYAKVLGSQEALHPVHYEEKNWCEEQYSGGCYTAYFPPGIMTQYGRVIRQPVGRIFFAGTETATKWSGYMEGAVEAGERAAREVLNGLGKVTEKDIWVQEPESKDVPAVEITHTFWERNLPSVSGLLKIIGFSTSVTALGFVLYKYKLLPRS

Hepatitis C virus [4] = assay: Antiviral activity against Hepatitis C virus genotype 1a infected in human Huh cells assessed as inhibition of viral replication by RT-PCR-based replicon assay; assay type: functional, cell-based, Hepacivirus hominis; settings: subtype 1a
[5] = Cmax in rat at 5 mg/kg, po and 2 mg/kg, iv; assay type: ADME, organism-based; settings: in vivo
[6] = Bioavailability in rat at 5 mg/kg, po and 2 mg/kg, iv; assay type: ADME, organism-based; settings: in vivo
[7] = Half life in rat liver microsomes at 2 uM; assay type: ADME
[8] = Half life in cynomolgous monkey at 5 mg/kg, po and 2 mg/kg, iv; assay type: ADME, organism-based, Macaca fascicularis; settings: cynomolgus monkey, in vivo
[9] = Clearance in rat at 5 mg/kg, po and 2 mg/kg, iv; assay type: ADME, organism-based; settings: in vivo
[10] = Clearance in cynomolgous monkey at 5 mg/kg, po and 2 mg/kg, iv; assay type: ADME, organism-based, Macaca fascicularis; settings: cynomolgus monkey, in vivo
[11] = AUC in dog at 5 mg/kg, po and 2 mg/kg, iv; assay type: ADME, organism-based, Canis lupus familiaris; settings: plasma
[12] = Ratio of drug uptake in liver to plasma of rat at 5 mg/kg, po and 2 mg/kg, iv after 6 to 8 hrs; assay type: ADME, organism-based
[13] = Volume of distribution at steady state in cynomolgous monkey at 5 mg/kg, po and 2 mg/kg, iv; assay type: ADME, organism-based, Macaca fascicularis; settings: cynomolgus monkey, in vivo, read-out: Vdss
[14] = Half life in dog at 5 mg/kg, po and 2 mg/kg, iv; assay type: ADME, organism-based, Canis lupus familiaris; settings: in vivo
[15] = Cmax in rat at 2 mg/kg, po each in 0.5% Methylcellulose and 0.3% Tween-80 and 1% N-methylpyrrolidone; assay type: ADME, organism-based; set-up: dose 2 mg/kg, route oral; settings: in vivo
[16] = Half life in cynomolgous monkey liver microsomes at 2 uM; assay type: ADME, Macaca fascicularis; settings: cynomolgus monkey
[17] = Bioavailability in cynomolgous monkey at 5 mg/kg, po and 2 mg/kg, iv; assay type: ADME, organism-based, Macaca fascicularis; settings: cynomolgus monkey, in vivo
[18] = Clearance in dog at 5 mg/kg, po and 2 mg/kg, iv; assay type: ADME, organism-based, Canis lupus familiaris; settings: in vivo
[19] = Lipophilicity, log D of the compound; assay type: physicochemical; settings: octanol/water
[20] = Lipophilicity, log D of the compound at pH 7.4; assay type: physicochemical; settings: buffer
Hepatitis C virus [21] = assay: Antiviral activity against Hepatitis C virus genotype 1b infected in human Huh cells assessed as inhibition of viral replication by RT-PCR-based replicon assay; assay type: functional, cell-based, Hepacivirus hominis
[22] = Volume of distribution at steady state in dog at 5 mg/kg, po and 2 mg/kg, iv; assay type: ADME, organism-based, Canis lupus familiaris; settings: in vivo, read-out: Vdss
[23] = molecular target: 5-hydroxytryptamine receptor 2A (Homo sapiens, UniProt P28223); assay: Inhibition of serotonin 5-HT2A receptor (unknown origin)
Sequence of 5-hydroxytryptamine receptor 2A (P28223 whole entry): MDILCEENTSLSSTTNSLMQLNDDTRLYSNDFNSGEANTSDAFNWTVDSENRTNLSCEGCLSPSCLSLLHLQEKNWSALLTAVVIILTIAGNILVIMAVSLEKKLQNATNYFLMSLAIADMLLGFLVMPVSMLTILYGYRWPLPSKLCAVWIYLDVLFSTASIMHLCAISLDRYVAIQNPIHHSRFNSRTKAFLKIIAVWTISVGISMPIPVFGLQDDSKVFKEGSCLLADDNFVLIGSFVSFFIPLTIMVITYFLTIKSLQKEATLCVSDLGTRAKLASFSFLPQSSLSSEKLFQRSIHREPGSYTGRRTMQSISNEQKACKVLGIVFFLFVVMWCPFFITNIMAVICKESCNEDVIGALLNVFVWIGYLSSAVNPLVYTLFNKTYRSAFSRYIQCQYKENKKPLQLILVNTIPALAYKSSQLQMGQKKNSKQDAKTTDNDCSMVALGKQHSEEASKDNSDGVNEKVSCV

[24] = Half life in dog liver microsomes at 2 uM; assay type: ADME, Canis lupus familiaris
[25] = Half life in rat at 5 mg/kg, po and 2 mg/kg, iv; assay type: ADME, organism-based; settings: in vivo
[26] = AUC in cynomolgous monkey at 5 mg/kg, po and 2 mg/kg, iv; assay type: ADME, organism-based, Macaca fascicularis; settings: cynomolgus monkey, plasma
[27] = Cmax in dog at 5 mg/kg, po and 2 mg/kg, iv; assay type: ADME, organism-based, Canis lupus familiaris; settings: in vivo
Cathepsin G = molecular target: T2, Cathepsin G (Homo sapiens, UniProt P08311); assay: Inhibition of cathepsin G (unknown origin)
T2 sequence (P08311 whole entry): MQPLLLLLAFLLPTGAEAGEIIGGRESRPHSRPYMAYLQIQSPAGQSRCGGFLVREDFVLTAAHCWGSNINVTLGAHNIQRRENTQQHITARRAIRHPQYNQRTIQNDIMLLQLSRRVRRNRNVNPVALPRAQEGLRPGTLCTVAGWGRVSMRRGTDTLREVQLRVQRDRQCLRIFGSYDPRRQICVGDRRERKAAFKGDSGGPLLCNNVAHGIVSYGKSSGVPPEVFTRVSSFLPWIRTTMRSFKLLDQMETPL

[28] = Bioavailability in dog at 5 mg/kg, po and 2 mg/kg, iv; assay type: ADME, organism-based, Canis lupus familiaris; settings: in vivo
[29] = AUC in rat at 5 mg/kg, po and 2 mg/kg, iv; assay type: ADME, organism-based; settings: plasma
[30] = Volume of distribution at steady state in rat at 5 mg/kg, po and 2 mg/kg, iv; assay type: ADME, organism-based; settings: in vivo, read-out: Vdss
[31] = molecular target: T3, Alpha-2A adrenergic receptor (Homo sapiens, UniProt P08913); assay: Inhibition of alpha2A adrenergic receptor (unknown origin)
T3 sequence (P08913 whole entry): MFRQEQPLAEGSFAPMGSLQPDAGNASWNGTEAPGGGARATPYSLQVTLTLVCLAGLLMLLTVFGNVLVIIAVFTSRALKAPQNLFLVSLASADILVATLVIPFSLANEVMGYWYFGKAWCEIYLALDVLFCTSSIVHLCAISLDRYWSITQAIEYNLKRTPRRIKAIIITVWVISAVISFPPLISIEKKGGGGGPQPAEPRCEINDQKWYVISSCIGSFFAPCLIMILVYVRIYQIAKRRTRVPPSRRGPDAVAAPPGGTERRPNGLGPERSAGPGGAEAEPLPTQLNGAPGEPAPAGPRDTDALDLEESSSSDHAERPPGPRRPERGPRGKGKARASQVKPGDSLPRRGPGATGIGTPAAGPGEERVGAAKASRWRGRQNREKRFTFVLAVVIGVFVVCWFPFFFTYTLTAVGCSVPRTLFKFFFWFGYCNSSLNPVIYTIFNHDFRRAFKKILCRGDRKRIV

[32] = molecular target: T4, Prostaglandin G/H synthase 2 (Homo sapiens, UniProt P35354); assay: Inhibition of COX2 (unknown origin)
T4 sequence (P35354 whole entry): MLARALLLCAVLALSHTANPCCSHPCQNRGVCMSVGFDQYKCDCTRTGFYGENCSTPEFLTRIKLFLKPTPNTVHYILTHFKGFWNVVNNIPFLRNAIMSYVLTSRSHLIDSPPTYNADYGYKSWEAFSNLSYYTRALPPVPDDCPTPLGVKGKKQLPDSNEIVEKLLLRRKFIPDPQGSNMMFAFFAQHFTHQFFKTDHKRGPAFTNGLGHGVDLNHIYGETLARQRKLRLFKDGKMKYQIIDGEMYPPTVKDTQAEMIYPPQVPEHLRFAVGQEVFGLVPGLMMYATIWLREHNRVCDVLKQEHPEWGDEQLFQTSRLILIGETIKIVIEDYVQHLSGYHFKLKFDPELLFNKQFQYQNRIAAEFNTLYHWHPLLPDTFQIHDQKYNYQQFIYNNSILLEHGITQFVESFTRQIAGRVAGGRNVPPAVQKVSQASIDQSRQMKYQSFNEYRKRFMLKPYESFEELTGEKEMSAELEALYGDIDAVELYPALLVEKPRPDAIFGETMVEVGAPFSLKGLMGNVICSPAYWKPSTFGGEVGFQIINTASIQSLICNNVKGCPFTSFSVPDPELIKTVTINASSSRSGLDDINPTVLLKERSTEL

[33] = molecular target: T5, Polyunsaturated fatty acid 5-lipoxygenase (Homo sapiens, UniProt P09917); assay: Inhibition of 5-LO (unknown origin)
T5 sequence (P09917 whole entry): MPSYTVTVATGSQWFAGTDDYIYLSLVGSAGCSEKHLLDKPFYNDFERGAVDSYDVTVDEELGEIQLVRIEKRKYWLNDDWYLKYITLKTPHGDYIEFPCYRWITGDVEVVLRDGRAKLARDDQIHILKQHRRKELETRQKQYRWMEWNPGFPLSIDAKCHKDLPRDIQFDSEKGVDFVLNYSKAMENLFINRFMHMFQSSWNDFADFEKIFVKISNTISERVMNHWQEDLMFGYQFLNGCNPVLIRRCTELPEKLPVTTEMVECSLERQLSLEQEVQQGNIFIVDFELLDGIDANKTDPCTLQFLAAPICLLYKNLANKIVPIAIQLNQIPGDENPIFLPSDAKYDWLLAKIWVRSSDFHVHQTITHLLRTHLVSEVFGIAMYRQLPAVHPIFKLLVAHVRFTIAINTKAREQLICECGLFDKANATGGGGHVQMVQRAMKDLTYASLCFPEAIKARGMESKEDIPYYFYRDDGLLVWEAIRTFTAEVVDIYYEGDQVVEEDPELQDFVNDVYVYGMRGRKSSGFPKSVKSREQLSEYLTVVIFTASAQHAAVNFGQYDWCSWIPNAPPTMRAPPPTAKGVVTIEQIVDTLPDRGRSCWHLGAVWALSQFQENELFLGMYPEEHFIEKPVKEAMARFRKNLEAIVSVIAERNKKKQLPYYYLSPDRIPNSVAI

Glucocorticoid receptor = molecular target: T6, Glucocorticoid receptor (Homo sapiens, UniProt P04150); assay: Inhibition of glucocorticoid receptor (unknown origin)
T6 sequence (P04150 whole entry): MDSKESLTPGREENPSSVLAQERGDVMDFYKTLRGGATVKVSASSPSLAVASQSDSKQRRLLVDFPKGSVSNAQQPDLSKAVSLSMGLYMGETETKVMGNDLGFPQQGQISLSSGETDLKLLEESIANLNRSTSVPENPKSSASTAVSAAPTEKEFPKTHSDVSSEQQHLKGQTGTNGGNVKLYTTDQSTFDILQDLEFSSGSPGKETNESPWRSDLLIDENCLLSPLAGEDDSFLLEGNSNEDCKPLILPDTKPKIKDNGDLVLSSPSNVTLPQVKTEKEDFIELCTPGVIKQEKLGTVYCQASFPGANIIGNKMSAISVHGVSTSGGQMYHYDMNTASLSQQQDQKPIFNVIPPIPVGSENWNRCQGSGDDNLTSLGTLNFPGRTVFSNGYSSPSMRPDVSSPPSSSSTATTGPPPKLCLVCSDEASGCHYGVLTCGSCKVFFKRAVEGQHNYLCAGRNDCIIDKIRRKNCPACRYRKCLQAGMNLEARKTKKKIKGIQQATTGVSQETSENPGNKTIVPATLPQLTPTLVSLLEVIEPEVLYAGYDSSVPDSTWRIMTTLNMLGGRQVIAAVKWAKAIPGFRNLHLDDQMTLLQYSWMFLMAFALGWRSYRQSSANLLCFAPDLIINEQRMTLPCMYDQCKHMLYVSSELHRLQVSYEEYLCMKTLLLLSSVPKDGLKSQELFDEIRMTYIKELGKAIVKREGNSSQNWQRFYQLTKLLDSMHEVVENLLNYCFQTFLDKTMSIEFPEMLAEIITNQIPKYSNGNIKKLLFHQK

[34] = molecular target: GABA-A receptor; agonist GABA site; assay: Inhibition of GABAA receptor (unknown origin); assay type: protein-complex assay, Homo sapiens

Sequence of D(1A) dopamine receptor (P21728 whole entry): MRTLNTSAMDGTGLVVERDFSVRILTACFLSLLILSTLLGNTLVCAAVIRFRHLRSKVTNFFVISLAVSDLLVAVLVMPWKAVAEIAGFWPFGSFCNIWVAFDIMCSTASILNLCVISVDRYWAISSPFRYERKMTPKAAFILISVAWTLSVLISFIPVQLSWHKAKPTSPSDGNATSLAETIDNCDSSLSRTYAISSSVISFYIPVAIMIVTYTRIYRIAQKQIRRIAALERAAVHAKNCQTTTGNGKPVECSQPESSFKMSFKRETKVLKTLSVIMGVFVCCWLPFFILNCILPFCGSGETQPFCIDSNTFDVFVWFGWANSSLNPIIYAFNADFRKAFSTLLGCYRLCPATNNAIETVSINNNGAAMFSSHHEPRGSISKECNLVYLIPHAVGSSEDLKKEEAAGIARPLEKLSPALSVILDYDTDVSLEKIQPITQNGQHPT

CCOc1nc(NC(=O)C(C)(C)NC(=O)c2ccc3c(C4CCCC4)c(-c4ccc(F)cn4)n(C)c3c2)ccc1/C=C/C(=O)O
IC50 (D(1A) dopamine receptor): 6 µM | half-life at 2 µM [1]: 1.5 h | Cmax [2]: 0.44 µM | IC50 [3]: 1.3 µM | EC50 (Hepatitis C virus [4]): 0.023 µM | Cmax [5]: 3.6 µM | bioavailability [6]: 71% | half-life at 2 µM [7]: 1.3 h | half-life [8]: 0.7 h | clearance [9]: 0.786 L/h/kg | clearance [10]: 0.834 L/h/kg | AUC [11]: 21 µM·h | Kp [12]: 13.5 | Vd [13]: 0.4 L/kg | half-life [14]: 2.3 h | Cmax [15]: 3.6 µM | half-life at 2 µM [16]: 0.217 h | bioavailability [17]: 12% | clearance [18]: 0.276 L/h/kg | logD [19]: 3.5 | logD [20]: 3.5 | EC50 (Hepatitis C virus [21]): 0.005 µM | Vd [22]: 0.48 L/kg | IC50 [23]: 6 µM | half-life at 2 µM [24]: 3.13 h | half-life [25]: 2.8 h | AUC [26]: 1.2 µM·h | Cmax [27]: 7.2 µM | IC50 (Cathepsin G): 6 µM | bioavailability [28]: 69% | AUC [29]: 7.2 µM·h | Vd [30]: 1.43 L/kg

Cn1c(-c2ccccn2)c(C2CCCC2)c2ccc(C(=O)NC3(C(=O)Nc4ccc(/C=C/C(=O)O)cc4)CCC3)cc21 [BILB-1941]
IC50 (D(1A) dopamine receptor): < 10 µM | IC50 [3]: < 10 µM | IC50 [31]: < 10 µM | IC50 [32]: < 10 µM | IC50 [33]: < 10 µM | IC50 (Glucocorticoid receptor): < 10 µM | IC50 [34]: < 10 µM | IC50 (Cathepsin G): < 10 µM

Source: ChEMBL document CHEMBL3407472, “Multi-parameter optimization of aza-follow-ups to BI 207524, a thumb pocket 1 HCV NS5B polymerase inhibitor. Part 2: Impact of lipophilicity on promiscuity and in vivo toxicity” (Bioorg Med Chem Lett, 2015)
